Data published in patent US8273775B2, “Non-steroidal brassinosteroid mimetic” (priority 2006, dated 2012).

System: gene expression in Col-0 seedling shoots
Experiment: Microarray analysis (ATH1 Affymetrix) after BL or abrasin treatment
Format: in vivo, Arabidopsis
Protocol: FIG. 14: Clustering of gene expression profiles by QT-clust analysis. Clusters illustrating the major patterns of the data sets. Points: BIK-30: 30 μM abrasin 30 min; BL-30: 1 μM brassinolide 30 min; DMSO-30: control DMSO 30 min; BIK-120: 30 μM abrasin 120 min; BL-120: 1 μM brassinolide 120 min; DMSO-120: control DMSO 120 min.
Col-0 seeds were germinated vertically on ½ MS medium for 7 days under 16 h light/8 h dark cycles. The seedlings were overlaid with liquid ½ MS medium containing 1 μM brassinolide (BL, Fuji Chemical Industries, Ltd., Toyama, Japan), 30 μM abrasin (BIK, ChemBridge Corporation) and DMSO and treated for 30 and 120 min. The shoot parts were collected for RNA isolation. All sampling points were performed in three independent experiments. RNA was extracted using RNeasy kit (Qiagene). […] total RNA per array was used to hybridise the ATH1 Affymetrix Arabidopsis arrays according to standard procedure. The overrepresentation analyses were performed using BiNGO software (Maere et al., 2005).
We performed a microarray analysis using the Arabidopsis whole genome chip (Affymetix) to determine whether abrasin activated the expression of BR-inducible genes at transcriptional level. Wild-type Col-0 seedlings were exposed to 1 μM BL, 30 μM ABRASIN and DMSO (mock-treatment) for two time points (30 min and 120 min) and the shoot parts were collected for RNA isolation. The analysis of the variance of the normalized gene expression data took in account the variability parameters affecting the expression level: type of hormone treatment, duration of treatment and the interaction between these two.

## CC(C)[C@H](C)[C@@H](O)[C@H](O)[C@@H](C)[C@H]1CC[C@H]2[C@@H]3COC(=O)[C@H]4C[C@H](O)[C@H](O)C[C@]4(C)[C@H]3CC[C@]12C [BL, brassinolide, reference compound]
1 μM BL, 30 μM ABRASIN
  expression of BR biosynthesis genes (CPD, DWF4, BR6OX2), Cluster 1: down-regulated
  expression of genes involved in the auxin pathway (IAA29, IAA2): significantly down-regulated
1 μM BL, 30 μM ABRASIN, 30 and 120 min
  induction of early auxin-inducible SAUR family genes, Cluster 3: induced by BL as faster as 30 min treatment
30 min
  Fold-change AT1G04330 expressed protein: 1.04
  Fold-change AT1G05470 endonuclease/exonuclease/phosphatase family protein: 1.04
  Fold-change AT1G06520 Encodes a membrane associated mitochondrial localized protein: 1.57
  Fold-change AT1G06570 4-hydroxyphenylpyruvate dioxygenase (HPD): 0.87
  Fold-change AT1G10550 xyloglucan:xyloglucosyl transferase: 1.34
  Fold-change AT1G12710 F-box family protein: 1.26
  Fold-change AT1G12750 rhomboid family protein: 1.15
  Fold-change AT1G14130 2-oxoglutarate-dependent dioxygenase: 1.26
  Fold-change AT1G14700 purple acid phosphatase: 0.73
  Fold-change AT1G16640 transcriptional factor B3 family protein: 1.02
  Fold-change AT1G17230 leucine-rich repeat family protein: 1.08
  Fold-change AT1G18020; AT1G17990 [AT1G18020, 12-oxophytodienoate reductase,: 0.80
  Fold-change AT1G19320 pathogenesis-related thaumatin family protein: 0.81
  Fold-change AT1G20350 mitochondrial import inner membrane translocase subunit: 0.99
  Fold-change AT1G21050 expressed protein: 0.72
  Fold-change AT1G21760 F-box family protein: 1.02
  Fold-change AT1G22360 UDP-glucoronosyl/UDP-glucosyl transferase family protein: 0.94
  Fold-change AT1G23080 auxin efflux carrier protein (PIN7): 0.89
  Fold-change AT1G26800 zinc finger (C3HC4-type RING finger) family protein,: 1.51
  Fold-change AT1G27730 zinc finger (C2H2 type) family protein: 0.18
  Fold-change AT1G28130 encodes an IAA-amido synthase: 0.85
  Fold-change AT1G28190 expressed protein: 0.66
  Fold-change AT1G28480 glutaredoxin family protein: 0.99
  Fold-change AT1G31040 zinc-binding protein-related: 0.88
  Fold-change AT1G31310 hydroxyproline-rich glycoprotein family protein: 0.85
  Fold-change AT1G31770 ABC transporter family protein: 0.99
  Fold-change AT1G32190 expressed protein: 1.00
  Fold-change AT1G32690 expressed protein: 0.92
  Fold-change AT1G36940 expressed protein: 0.89
  Fold-change AT1G49780 U-box domain-containing protein: 0.53
  Fold-change AT1G53870; AT1G53890 [AT1G53870, expressed protein: 0.89
  Fold-change AT1G54050 17.4 kDa class III heat shock protein (HSP17.4-CIII): 1.09
  Fold-change AT1G54200 expressed protein: 1.16
  Fold-change AT1G55920 serine O-acetyltransferase: 1.04
  Fold-change AT1G57560 myb family transcription factor (MYB50): 1.04
  Fold-change AT1G59590 expressed protein: 0.95
  Fold-change AT1G59660 nucleoporin family proteinmily: 1.67
  Fold-change AT1G62300 WRKY family transcription factor: 0.63
  Fold-change AT1G63050 membrane bound O-acyl transferase (MBOAT) family protein: 0.98
  Fold-change AT1G66160 U-box domain-containing protein,: 1.10
  Fold-change AT1G66890 expressed protein: 0.72
  Fold-change AT1G68330 expressed protein: 0.90
  Fold-change AT1G68810 basic helix-loop-helix (bHLH) family protein: 1.11
  Fold-change AT1G69160 expressed protein: 1.06
  Fold-change AT1G70990 proline-rich family protein: 1.59
  Fold-change AT1G71030 Encodes a putative myb family transcription factor: 0.84
  Fold-change AT1G72060 expressed protein: 0.96
  Fold-change AT1G72180 leucine-rich repeat transmembrane protein kinase: 0.87
  Fold-change AT1G72800 nuM1-related, contains: 1.08
  Fold-change AT1G75270 dehydroascorbate reductase: 1.27
  Fold-change AT1G75500 nodulin MtN21 family protein: 0.91
  Fold-change AT1G76240 expressed protein,: 0.57
  Fold-change AT1G76410 zinc finger (C3HC4-type RING finger): 1.61
  Fold-change AT1G79110 expressed protein: 1.09
  Fold-change AT1G79630 protein phosphatase 2C family protein: 0.78
  Fold-change AT1G80440 kelch repeat-containing F-box family protein: 1.71
  Fold-change AT2G01300 expressed protein: 1.16
  Fold-change AT2G01990 expressed protein,: 0.91
  Fold-change AT2G04240 zinc finger (C3HC4-type RING finger) family protein: 1.46
  Fold-change AT2G05540 glycine-rich protein: 0.92
  Fold-change AT2G12290; AT4G19700 [AT2G12290, expressed protein]; [AT4G19700, expressed protein]: 0.80
  Fold-change AT2G18010 auxin-responsive family protein (SAUR10): 1.60
  Fold-change AT2G19800 expressed protein: 1.20
  Fold-change AT2G22860 phytosulfokines 2 (PSK2): 0.86
  Fold-change AT2G23180 cytochrome P450, putative: 1.10
  Fold-change AT2G23320 WRKY family transcription factor: 0.86
  Fold-change AT2G26530 expressed protein: 0.41
  Fold-change AT2G26710 cytochrome p450 family (BAS1): 1.56
  Fold-change AT2G28510 Dof-type zinc finger domain-containing protein: 0.94
  Fold-change AT2G29340 short-chain dehydrogenase/reductase (SDR) family protein: 0.85
  Fold-change AT2G29990 pyridine nucleotide-disulphide oxidoreductase family protein: 0.94
  Fold-change AT2G30070 potassium transporter (KUP1): 0.81
  Fold-change AT2G31230 encodes a member of the ERF (ethylene response factor): 1.66
  Fold-change AT2G34650 protein kinase PINOID (PID): 1.54
  Fold-change AT2G36220 expressed protein: 1.18
  Fold-change AT2G37590 Dof-type zinc finger domain-containing protein: 0.90
  Fold-change AT2G38470 WRKY family transcription factor: 0.38
  Fold-change AT2G39710 aspartyl protease family protein: 1.25
  Fold-change AT2G40340; AT2G40350 [AT2G40340, encodes a member of the DREB subfamily A-2 of ERF/AP2: 1.16
  Fold-change AT2G41250 haloacid dehalogenase-like hydrolase family protein: 0.91
  Fold-change AT2G41640 expressed protein: 0.84
  Fold-change AT2G42280 basic helix-loop-helix (bHLH) family protein: 0.98
  Fold-change AT2G43060 expressed protein, similar to cDNA bHLH transcription factor: 0.25
  Fold-change AT2G43280 far-red impaired responsive family protein: 0.84
  Fold-change AT2G43290 calmodulin-like protein (MSS3): 1.24
  Fold-change AT2G44130 kelch repeat-containing F-box family protein: 1.63
  Fold-change AT2G44500 expressed protein: 1.16
  Fold-change AT2G45210 auxin-responsive protein-related: 0.77
  Fold-change AT2G45680 TCP family transcription factor: 0.91
  Fold-change AT2G46225 Encodes a subunit of the WAVE complex: 0.97
  Fold-change AT2G47440 DNAJ heat shock N-terminal domain-containing protein: 1.31
  Fold-change AT3G04210 disease resistance protein (TIR-NBS class), putative,: 0.89
  Fold-change AT3G09920 phosphatidylinositol-4-phosphate 5-kinase family protein: 0.94
  Fold-change AT3G12920 expressed protein: 0.81
  Fold-change AT3G13040 myb family transcription factor: 0.84
  Fold-change AT3G13510 expressed protein: 1.06
  Fold-change AT3G13980 expressed protein: 0.71
  Fold-change AT3G14370 protein kinase family protein: 2.13
  Fold-change AT3G14560 expressed protein: 0.81
  Fold-change AT3G16570 rapid alkalinization factor (RALF) family protein: 0.88
  Fold-change AT3G17860 expressed protein: 1.08
  Fold-change AT3G18830 polyol/cyclitol/monosaccharide-H+-symporte: 1.11
  Fold-change AT3G19380 U-box domain-containing protein: 0.70
  Fold-change AT3G23030 auxin-responsive protein/indoleacetic acid-induced protein 2 (IAA2): 0.66
  Fold-change AT3G23550 MATE efflux family protein: 0.84
  Fold-change AT3G25710 basic helix-loop-helix (bHLH) family protein: 1.06
  Fold-change AT3G25900 homocysteine S-methyltransferase 1 (HMT-1): 1.17
  Fold-change AT3G26910 hydroxyproline-rich glycoprotein family protein: 1.08
  Fold-change AT3G30180 cytochrome p450 enzyme: 0.31
  Fold-change AT3G46880 expressed protein,: 0.84
  Fold-change AT3G47800 aldose 1-epimerase family protein: 1.06
  Fold-change AT3G48970 copper-binding family protein: 0.97
  Fold-change AT3G49810 U-box domain-containing protein: 0.89
  Fold-change AT3G50650 scarecrow-like transcription factor 7 (SCL7): 1.17
  Fold-change AT3G50660 steroid 22-alpha-hydroxylase (CYP90B1) (DWF4): 0.47
  Fold-change AT3G50750 brassinosteroid signalling positive regulator-related (BEH1): 0.99
  Fold-change AT3G52490 heat shock protein-related: 0.93
  Fold-change AT3G53810 lectin protein kinase: 0.80
  Fold-change AT3G54950 patatin-related,: 0.86
  Fold-change AT3G55120 chalcone-flavanone isomerase: 0.98
  Fold-change AT3G55150 exocyst subunit EXO70 family protein: 0.75
  Fold-change AT3G55840 expressed protein: 1.06
  Fold-change AT3G61460 zinc finger (C3HC4-type RING finger) family protein (BRH1): 0.78
  Fold-change AT3G63300 expressed protein: 1.02
  Fold-change AT4G01680 myb family transcription factor (MYB55): 0.51
  Fold-change AT4G02410 lectin protein kinase family protein: 0.66
  Fold-change AT4G08040 1-aminocyclopropane-1-carboxylate synthase, putative: 0.13
  Fold-change AT4G09460 myb family transcription factor: 1.30
  Fold-change AT4G12390 invertase/pectin methylesterase inhibitor family protein: 0.96
  Fold-change AT4G12410 auxin-responsive family protein: 1.02
  Fold-change AT4G14130 xyloglucan:xyloglucosyl transferase: 0.85
  Fold-change AT4G15975 zinc finger (C3HC4-type RING finger) family protein: 1.10
  Fold-change AT4G16146 expressed protein: 0.82
